Four molecules from US12187992B2, “Method and device for early cancer screening” (The Regents of the University of California, priority 2020, dated 2025) can be followed below.

What all share (type): cell-based, human
Assay [1] deals with weakly adherent MDA-MB-231 cells. Kind of assay: 2D migration assay on step-gradient hydrogels under drug treatment (durotaxis). Conditions: WA mammary cells. The text has this: (§1) A two-step photopolymerization method was used as described previously (Happe et al., 2017) to produce hydrogels with alternating elasticity profiles. Acrylamide concentrations of the prepolymer solutions were modified to obtain elasticities matching that of the tumor and stromal environment of each type of cancer. For breast cancer hydrogels, 3% acrylamide (3.7% for lung, 6.4% for prostate) and 0.4% bis-acrylamide were used for the first prepolymer solution, which was polymerized between a methacrylated 18 mm coverslip and a chlorosilanated glass slide by exposing to ultraviolet light (350 nm) for 5 minutes, using 2-hydroxy-4′-(2-hydroxyethoxy)-2-methylpropiophenone (0.5%) as the photo-initiator. The PA hydrogel was removed from the chlorosilanated glass slide and dehydrated for 1 hour on a hot plate at 30° C. prior to rehydrating with a 2% acrylamide (3.7% for lung, 3.2% for prostate) and 0.4% bis-acrylamide prepolymer solution. The rehydrated gel was again exposed to UV light for 5 min through a high-resolution chrome patterned photomask 200 μm dark stripes and 100 μm clear stripes. The Young's moduli of each region were validated using atomic force microscopy.
(§2) The hydrogels were then placed in a 12-well plate on top of 50 μl of 2 mg/ml of collagen I to adhere the coverslip to the bottom of the well. After the collagen polymerized, the gels were immersed in a solution of sulfosuccinimidyl 6-(4′-azido-2′-nitrophenylamino)hexanoate (0.2 mg/ml, Sulfo-SANPAH; Pierce) dissolved in 4-(2-hydroxyethyl)-1-piperazineethanesulfonic acid buffer (pH 8.4, 50 mM) and exposed to UV light (350 nm) for 10 minutes. After washing several times with PBS, the functionalized surface of the gels was coated with collagen I (150 μg/ml) by incubating overnight at 37° C.
(§3) Weakly and strongly adherent cells were isolated at varying shear stresses using a parallel plate flow chamber (Beri et al., 2020). To ensure sufficient spacing between individual cells, MDA-MB-231 and NCI-H1299 cells were seeded at […] onto a fibronectin (2 μg/cm^2) coated glass plate and incubated overnight. […] For each cell line, PBS free of magnesium and calcium and with 4.5 g/L of dextrose was used to shear cells. Shear stresses used to detach the weakly adherent (WA) population were selected to collect about 20,000 cells at a given flow rate (3 min at 30 dynes/cm^2 for MDA-MB-231, 3 min at 60 dynes/cm^2 for PC-3 and NCI-H1299 cells). The strongly adherent (SA) population was collected after washing away the intermediate population at a higher shear stress (2 min 500 at dynes/cm^2 for MDA-MB-231, 5 min at 300 dynes/cm^2 for NCI-H1299, and 2 min at 750 dynes/cm^2 for PC-3), and detaching the remaining SA population using 0.25% trypsin-EDTA. Media was then pumped though the device to neutralize the trypsin and collect the SA cells. Collected cells were then seeded onto hydrogels and allowed to adhere for […] 2 hours prior to imaging.
(§4) Isolated cells were seeded at ˜1500 cells/well onto step-gradient gels fixed in a 12-well plate and allowed to adhere for no more than 2 hours to ensure a random distribution across the step-gradient at the start of imaging. The cells were imaged over 24 hours using a Nikon Eclipse Ti-S microscope equipped with a temperature and CO2 controller (Pathology Devices Inc., LiveCell). […] Cell trajectories were collected and analyzed using a custom MATLAB script (https://github.com/compactmatterlab/Durotaxis, MathWorks, Natick, MA). […]

Assay [2] concerns strongly adherent MDA-MB231 cells. Kind of assay: 2D migration assay on collagen gels under microtubule-targeting drug treatment. Conditions: nocodazole 0.2 ug/mL, paclitaxel 0.5 ug/mL, tracked 24 hours on collagen gels. The method, then: (§5) To isolate the weakest and strongest 2% of the MDA-MB231 cell population for migration assays, the seeded plate was subjected to a low shear stress (28 dynes/cm^2) for 3 minutes to isolate WA cells in the flow through from the outlet. The shear stress was then increased to a high shear stress (510 dynes/cm^2) for 2 minutes to eliminate intermediate cell fractions. The remaining steps to isolate SA cells are listed above. The weakest MCF10A and […] cells were isolated using 170 and 130 dynes/cm^2 of shear stress respectively; the strongest were isolated using 1275 and 595 dynes/cm^2 respectively. 2D migration assays on collagen gels: 2.4 mg/mL Type I collagen gels were prepared by mixing collagen (Corning) with PBS, DI water, and 1 M NaOH and adjusted to pH 7.0. Gels were added to a 12-well plate and cured at 37° C. for 30 minutes. The weakest and strongest 2% of the cell population were seeded onto the gels and incubated overnight. The cells were imaged with a Nikon Eclipse Ti-S microscope equipped with a temperature- and CO2-controlled stage. Cells were imaged at 10× in brightfield every 15 minutes for 24 hours. The migration data was analyzed via Fiji. The positions were normalized to the starting point and analyzed via a custom MATLAB script to compute instantaneous speed and cell displacement. […] Cells that interacted with other cells for more than 2 hours were not tracked, as cell-cell interactions artificially slowed cell speed. For MDA-MB231 cell migration under drug treatment, cells were treated with either 0.2 μg/mL nocodazole (Cayman Chemical) or 0.5 μg/mL paclitaxel (LC Laboratories). Cells were imaged the following day for 24 hours and tracked as stated above.

Assay [3] deals with weakly adherent MDA-MB231 cells. The description is as above. Conditions: nocodazole 0.2 ug/mL, paclitaxel 0.5 ug/mL, tracked 24 hours on collagen gels. On the procedure:
as §5

The subject of assay [4] is strongly adherent MDA-MB-231 cells. Nature of the assay: 2D migration assay on step-gradient hydrogels under drug treatment (durotaxis). Conditions: SA mammary cells; LPA 1, 10 μM or DMSO; t=3 and t=24 hours.
Text: as §1, §2, §3, §4

Entries after “also recorded” stand apart in the source; their conditions may differ.

On to `Cc1ccc2c(c1)C(=O)[C@]1(O)CCN(c3ccc([N+](=O)[O-])cc3)C1=N2` [blebbistatin, (S)-4′-nitro-Blebbistatin], for which the “cell speed on soft and stiff substrates” value in assay [1] (blebbistatin 100 μM vs DMSO, step-gradient hydrogels) is “decreased”. For the same molecule, in assay [1] (blebbistatin 1, 10, 100 μM or DMSO, t=3 and t=27 hours), the “durotactic behavior (cell fraction vs hydrogel position), dose dependent response” value is reported as “became more durotactic”. For the same molecule, in assay [1] (blebbistatin-treated vs DMSO), the antidurotactic migration entry is “much less likely” and the “likelihood to migrate from the soft substrate into the stiff substrate (durotactic migration)” value is listed as 2 fold.

`COC(=O)Nc1nc2ccc(C(=O)c3cccs3)cc2[nH]1` [nocodazole]: the average migration speed result in assay [2] is “unaffected; also recorded: no change”; in assay [3] it was “migration speed reduced to that of the strongly adherent cells; also recorded: significant decrease in migration speed; also recorded: significant decrease in average speed”.

Take `CC(=O)O[C@H]1C(=O)[C@@]2(C)[C@H]([C@H](OC(=O)c3ccccc3)[C@]3(O)C[C@H](OC(=O)[C@H](O)[C@@H](NC(=O)c4ccccc4)c4ccccc4)C(C)=C1C3(C)C)[C@]1(OC(C)=O)CO[C@@H]1C[C@@H]2O` [paclitaxel]: the average migration speed entry in assay [2] is listed as “unaffected; also recorded: no change”; in assay [3] it was “migration speed reduced to that of the strongly adherent cells; also recorded: significant decrease in migration speed; also recorded: significant decrease in average speed”.

On to “lysophosphatidic acid [lysophophatidic acid]”, for which the “durotactic behavior (cell fraction vs hydrogel position), dose dependent response” value in assay [4] is “became less durotactic”.
